These results are taken from patent US20110224213A1, “Use of Glutaric Acid Derivatives or the Pharmaceutically Acceptable Salts Thereof as Anti-Arrhythmic Agents” (priority 2008, published 2011).

The test system of data set [1] is aconitic arrhythmia in mice. Kind of data set: animal or person. Type of data set: in vivo. Conditions: per/os, mice. How it is done:
Arrhythmia was reproduced according to the method of Ju. I. Vikhlyayev and N. V. Kaverina (1958) [Kaverina N. V., Berdyaev S. Ju., Kuschuk E. P., Paskhina O. E. Methodical indications in respect to a study of the anti-arrhythmic activity of new pharmacological substances. Manual on experimental (pre-clinical) study of new pharmacological substances. Edited by V. P. Fisenko.—Moscow. 2000. Page 210]. Aconitine nitrate was administered to the animals in a dose of 50 μg/kg intravenously.
This model makes it possible to assess the scope of the therapeutic action of the presented compounds and the N-succinyl-D,L-tryptophane dipotassium salt. Assessment of the scope of the therapeutic action was carried out in accordance with the value of the anti-arrhythmic index (AAI), determined as the ratio LD50 upon the oral method of administering to ED50 on an aconitic model of arrhythmia.

Data set [2] relates to occlusive arrhythmia in cats. Kind of data set: Early occlusive arrhythmia in cats (coronary artery ligation).
In data set [3] the test system is adrenal arrhythmia in mice. Format: in vivo.
Where [4] appears, read: mice, dose 0.05 mg/kg, introduced internally.
[5] abbreviates: mice, dose 0.5 mg/kg, introduced internally.

Where a name gives a salt, the structure may show the parent alone. Read-outs that look alike come from different tables or passages of the source. Marks after values point to notes of the source that are not given here.

For `O=C([O-])CCC(=O)NC(Cc1c[nH]c2ccccc12)C(=O)[O-].[K+].[K+]` (racemic) [N-succinyl-D,L-tryptophane dipotassium salt, reference compound], the “animals died after administration of the substance” value in data set [1] (dose of 50 mg/kg) was determined as 50%. Further, the “test animals in which arrhythmia develops” value in data set [1] (interval of doses 0.05-5 mg/kg) is recorded as 71-100%. Further, in data set [2] (23% lethality in the control), the “effect on experimental lethality” value is on record as “prevented experimental lethality”. In data set [2] (dose 0.05 mg/kg, intravenously), the “Animals died in group” value is 0, the “Animals with ventricular arrhythmia (%)” value turned out to be 50%, the “Number of animals with ventricular arrhythmia” value was determined as 3 and the “Time of occurrence of arrhythmia” value is 19 ± 3 min. In data set [2] (dose 0.5 mg/kg, intravenously), the “Animals died in group” value amounted to 0, the “Animals with ventricular arrhythmia (%)” value is 17%, the “Number of animals with ventricular arrhythmia” value is given as 1 and the “Time of occurrence of arrhythmia” value is on record as 21 min. Also, the “anti-arrhythmic effect” value in data set [2] (dose of 0.05 mg/kg, intravenous) is listed as “did not demonstrate a reliable anti-arrhythmic effect”. Further, in data set [3] (setting [4]), the “Animals lethal (%)” value is listed as “(100%)”, the “Animals with AV blockage (%)” value is recorded as “(43%)”, the “Animals with ventricular arrhythmia (%)” value is recorded as “(43%)” and the “Lifetime” value was determined as 16 ± 4 min. Besides, in data set [3] (setting [4]), the “Number of animals in groups lethal” value turned out to be 14, the “Number of animals in groups with AV blockage” value (from here on “Number … with AV blockage”) is reported as 6* and the “Number of animals in groups with ventricular arrhythmia” value is on record as 6*. For the same compound, in data set [3] (setting [5]), the “Animals lethal (%)” value is given as “(100%)”, the “Animals with AV blockage (%)” value is reported as “(57%)”, the “Animals with ventricular arrhythmia (%)” value was “(43%)” and the “Lifetime” value is on record as 16 ± 4 min. In data set [3] (setting [5]), the “Number of animals in groups lethal” value turned out to be 14, the “Number … with AV blockage” value is 8 and the “Number of animals in groups with ventricular arrhythmia” value was 6*.
In the case of `O=C(O)CCCC(=O)N[C@@H](Cc1c[nH]c2ccccc12)C(=O)O` [Compound II mono-sodium salt, mono-sodium salt N^α-glutaryl-L-tryptophane], in data set [3] (mice, 0.05 and 0.5 mg/kg, introduced internally), the “effect on lethality of the test animals” value is “statistically reliably reduced the lethality”. In data set [3] (setting [4]), the “Animals lethal (%)” value was “(50%)”, the “Animals with AV blockage (%)” value is “(0%)”, the “Animals with ventricular arrhythmia (%)” value was “(0%)” and the “Lifetime” value is 22 ± 3.4 min. In data set [3] (setting [4]), the “Number of animals in groups lethal” value is recorded as 7*, the “Number … with AV blockage” value is listed as 0* and the “Number of animals in groups with ventricular arrhythmia” value is on record as 0*. For the same compound, in data set [3] (setting [5]), the “Animals lethal (%)” value was “(50%)”, the “Animals with AV blockage (%)” value is “(36%)”, the “Animals with ventricular arrhythmia (%)” value is “(0%)” and the “Lifetime” value was found to be 19 ± 2.8 min. In addition, in data set [3] (setting [5]), the “Number of animals in groups lethal” value is on record as 7*, the “Number … with AV blockage” value is given as 5* and the “Number of animals in groups with ventricular arrhythmia” value is 0*. Further, the “effect on ventricular ectopic complexes” value in data set [3] (mice, introduced internally) is on record as “elimination of the ventricular ectopic complexes in all of the test animals”.
As to `O=C(O)CCCC(=O)N[C@@H](Cc1c[nH]c2ccccc12)C(=O)O` [Compound II, N^α-glutaryl-L-tryptophane], in data set [2] (dose 0.05 mg/kg, intravenously), the “Animals died in group” value was 1, the “Animals died in group (%)” value stood at 14%, the “Animals with ventricular arrhythmia (%)” value is reported as 86% and the “Number of animals with ventricular arrhythmia” value was found to be 6. In data set [2] (dose 0.05 mg/kg, intravenously), the “Time of occurrence of arrhythmia” value is given as 17 ± 2 min. In data set [2] (dose 0.5 mg/kg, intravenously), the “Animals died in group” value stood at 0, the “Animals with ventricular arrhythmia (%)” value is on record as 29%, the “Number of animals with ventricular arrhythmia” value is reported as 2 and the “Time of occurrence of arrhythmia” value lay in the range of 17 to 20 min. In addition, in data set [3] (setting [4]), the “Animals lethal (%)” value is listed as “(50%)”, the “Animals with AV blockage (%)” value is listed as “(0%)”, the “Animals with ventricular arrhythmia (%)” value is listed as “(0%)” and the “Lifetime” value stood at 22 ± 3.4 min. In addition, in data set [3] (setting [4]), the “Number of animals in groups lethal” value is listed as 7*, the “Number … with AV blockage” value is 0* and the “Number of animals in groups with ventricular arrhythmia” value was 0*. Moreover, in data set [3] (setting [5]), the “Animals lethal (%)” value is “(50%)”, the “Animals with AV blockage (%)” value is listed as “(29%)”, the “Animals with ventricular arrhythmia (%)” value is “(0%)” and the “Lifetime” value worked out at 19 ± 2.8 min. For the same compound, in data set [3] (setting [5]), the “Number of animals in groups lethal” value is on record as 7*, the “Number … with AV blockage” value was 4* and the “Number of animals in groups with ventricular arrhythmia” value is given as 0*.
Regarding `O=C(O)CCCC(=O)NCCc1c[nH]cn1` [Compound IV, glutaryl histamine], in data set [3] (setting [4]), the “Animals lethal (%)” value is listed as “(79%)”, the “Animals with AV blockage (%)” value is “(21%)”, the “Animals with ventricular arrhythmia (%)” value is “(29%)” and the “Lifetime” value is on record as 24 ± 3 min. In data set [3] (setting [4]), the “Number of animals in groups lethal” value was 11, the “Number … with AV blockage” value is 3* and the “Number of animals in groups with ventricular arrhythmia” value is on record as 4*. Moreover, in data set [3] (setting [5]), the “Animals lethal (%)” value is given as “(100%)”, the “Animals with AV blockage (%)” value was “(29%)”, the “Animals with ventricular arrhythmia (%)” value is recorded as “(14%)” and the “Lifetime” value is on record as 18 ± 0.8 min. Also, in data set [3] (setting [5]), the “Number of animals in groups lethal” value was 14, the “Number … with AV blockage” value was 4* and the “Number of animals in groups with ventricular arrhythmia” value is given as 2*. Also, the “effect on life span of the test animals” value in data set [3] (mouse, in vivo, 0.05 mg/kg) is given as “effectively increased the life span”.
In the case of `O=C(O)CCCC(=O)NCCc1ccncc1` [Compound IX], in data set [3] (setting [4]), the “Animals lethal (%)” value is recorded as “(80%)”, the “Animals with AV blockage (%)” value is “(100%)”, the “Animals with ventricular arrhythmia (%)” value is reported as “(70%)” and the “Lifetime” value is recorded as 21 ± 6 min. Besides, in data set [3] (setting [4]), the “Number of animals in groups lethal” value stood at 8, the “Number … with AV blockage” value was found to be 10 and the “Number of animals in groups with ventricular arrhythmia” value is on record as 7. In data set [3] (setting [5]), the “Animals lethal (%)” value is “(60%)”, the “Animals with AV blockage (%)” value is “(50%)”, the “Animals with ventricular arrhythmia (%)” value is “(20%)” and the “Lifetime” value was found to be 32 ± 4 min. Also, in data set [3] (setting [5]), the “Number of animals in groups lethal” value is given as 6*, the “Number … with AV blockage” value was determined as 5 and the “Number of animals in groups with ventricular arrhythmia” value is 2*.
For `O=C(O)CCCC(=O)NCCc1c[nH]c2ccccc12` [Compound XIII mono-sodium salt], in data set [3] (setting [4]), the “Animals lethal (%)” value is given as “(43%)”, the “Animals with AV blockage (%)” value was “(43%)”, the “Animals with ventricular arrhythmia (%)” value is “(36%)” and the “Lifetime” value stood at 17 ± 4 min. For the same compound, in data set [3] (setting [4]), the “Number of animals in groups lethal” value was 6*, the “Number … with AV blockage” value is 6* and the “Number of animals in groups with ventricular arrhythmia” value is 5*. For the same compound, in data set [3] (setting [5]), the “Animals lethal (%)” value is “(36%)”, the “Animals with AV blockage (%)” value is reported as “(29%)”, the “Animals with ventricular arrhythmia (%)” value is on record as “(21%)” and the “Lifetime” value amounted to 28 ± 9 min. In data set [3] (setting [5]), the “Number of animals in groups lethal” value is reported as 5*, the “Number … with AV blockage” value is on record as 4* and the “Number of animals in groups with ventricular arrhythmia” value is reported as 3*.
Consider `O=C(O)CCCC(=O)NCCc1ccccn1` [Compound X], for which, in data set [3] (setting [4]), the “Animals lethal (%)” value is listed as “(70%)”, the “Animals with AV blockage (%)” value is “(70%)”, the “Animals with ventricular arrhythmia (%)” value is reported as “(60%)” and the “Lifetime” value is listed as 13 ± 4 min. Further, in data set [3] (setting [4]), the “Number of animals in groups lethal” value was 7*, the “Number … with AV blockage” value came to 7 and the “Number of animals in groups with ventricular arrhythmia” value is on record as 6*. Also, in data set [3] (setting [5]), the “Animals lethal (%)” value is listed as “(70%)”, the “Animals with AV blockage (%)” value was “(60%)”, the “Animals with ventricular arrhythmia (%)” value is recorded as “(30%)” and the “Lifetime” value worked out at 27 ± 6 min. Moreover, in data set [3] (setting [5]), the “Number of animals in groups lethal” value is 7*, the “Number … with AV blockage” value came to 6 and the “Number of animals in groups with ventricular arrhythmia” value is 3*.
In the case of `CCCCc1oc2ccccc2c1C(=O)c1cc(I)c(OCCN(CC)CC)c(I)c1` [Cordaron, amiodaron, reference compound], in data set [2] (dose 1.0 mg/kg, intravenously), the “Animals died in group” value was found to be 0, the “Animals with ventricular arrhythmia (%)” value came to 40%, the “Number of animals with ventricular arrhythmia” value was 4 and the “Time of occurrence of arrhythmia” value is reported as 21 ± 6 min.
Take `CC(C)NCC(O)COc1cccc2ccccc12` (centres unmarked) [Propranolol, propranolol, reference compound]: in data set [2] (dose 1.0 mg/kg, intravenously), the “Animals died in group” value is 0, the “Animals with ventricular arrhythmia (%)” value is on record as 28%, the “Number of animals with ventricular arrhythmia” value amounted to 2 and the “Time of occurrence of arrhythmia” value worked out at 24 ± 1 min. In addition, in data set [3] (mouse, in vivo, 0.1 mg/kg), the “Animals with AV blockage (%)” value is “(36%)”, the “Animals with ventricular arrhythmia (%)” value was “(29%)”, the “Lifetime” value stood at 20 ± 4 min and the “Number … with AV blockage” value is listed as 5*. Further, the “Number of animals in groups with ventricular arrhythmia” value in data set [3] (mouse, in vivo, 0.1 mg/kg) is given as 4*. Moreover, in data set [3] (mouse, in vivo, 0.5 mg/kg), the “Animals with AV blockage (%)” value is reported as “(29%)”, the “Animals with ventricular arrhythmia (%)” value is reported as “(50%)”, the “Lifetime” value is 23 ± 4 min and the “Number … with AV blockage” value is 4*. Besides, the “Number of animals in groups with ventricular arrhythmia” value in data set [3] (mouse, in vivo, 0.5 mg/kg) was 7*.
